The values below are quoted from earlier work in US7286970B2, “Computational model, method, and system for kinetically-tailoring multi-drug chemotherapy for individuals” (The Regents of the University of California, priority 2002, dated 2007).

Molecules are shown by their SMILES. Marks after values point to notes of the source that are not given here.

For the series the following is noted: for Plasma Half-life: in vivo.

As to `O=c1[nH]cc(F)c(=O)[nH]1` [5-Fluorouracil, 5-fluorouracil], the half-life result is reported as “about 15 min”.

As to `O=P1(N(CCCl)CCCl)NCCCO1` (centres unmarked) [Cyclophosphamide, cyclophosphamide], the “Plasma Half-life” value is 4^d h.

As to `COc1cccc2c1C(=O)c1c(O)c3c(c(O)c1C2=O)C[C@@](O)(C(=O)CO)C[C@@H]3O[C@H]1C[C@H](N)[C@H](O)[C@H](C)O1` [Doxorubicin, doxorubicin], the “Plasma Half-life” value was 25^d h.

Take `CN(Cc1cnc2nc(N)nc(N)c2n1)c1ccc(C(=O)N[C@@H](CCC(=O)O)C(=O)O)cc1` [Methotrexate, methotrexate]: the “Plasma Half-life” value is reported as 8^d h.

With `CC/C(=C(\c1ccccc1)c1ccc(OCCN(C)C)cc1)c1ccccc1` [Tamoxifen, tamoxifen], the “Plasma Half-life” value is recorded as 10^e h.
